#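 Cultured in 96-well plates, cells were exposed to test compound for 48 hours across five concentrations. TGI: total growth inhibition.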
# What was measured:
# Assay in all cases: NCI-60 cell line screen, 48 h
# RXF 393 renal = system: RXF 393 renal
# SNB-19 CNS = system: SNB-19 CNS
# MOLT-4 leukemia = system: MOLT-4 leukemia
# UACC-257 melanoma = system: UACC-257 melanoma
# RPMI-8226 leukemia = system: RPMI-8226 leukemia
# LOX IMVI melanoma = system: LOX IMVI melanoma
# MALME-3M melanoma = system: MALME-3M melanoma
# SK-OV-3 ovarian = system: SK-OV-3 ovarian
# IGROV1 ovarian = system: IGROV1 ovarian
# NCI-H460 lung = system: NCI-H460 lung
# SF-539 CNS = system: SF-539 CNS
# M14 melanoma = system: M14 melanoma
# NCI-H226 lung = system: NCI-H226 lung
# NCI-H23 lung = system: NCI-H23 lung
# TK-10 renal = system: TK-10 renal
# SK-MEL-28 melanoma = system: SK-MEL-28 melanoma
# 786-0 renal = system: 786-0 renal
# A498 renal = system: A498 renal
# DU-145 prostate = system: DU-145 prostate
# HCC-2998 colon = system: HCC-2998 colon
# SW-620 colon = system: SW-620 colon
# SNB-75 CNS = system: SNB-75 CNS
# HT29 colon = system: HT29 colon
# MDA-N = system: MDA-N
# SN12C renal = system: SN12C renal
# SK-MEL-2 melanoma = system: SK-MEL-2 melanoma
# NCI/ADR-RES ovarian = system: NCI/ADR-RES ovarian
# SF-268 CNS = system: SF-268 CNS
# OVCAR-5 ovarian = system: OVCAR-5 ovarian
# U251 CNS = system: U251 CNS
# UACC-62 melanoma = system: UACC-62 melanoma
# SK-MEL-5 melanoma = system: SK-MEL-5 melanoma
# KM12 colon = system: KM12 colon
# HCT-116 colon = system: HCT-116 colon
# HOP-62 NSCLC = system: HOP-62 NSCLC
# MDA-MB-231 breast = system: MDA-MB-231 breast
# T-47D breast = system: T-47D breast
# K-562 leukemia = system: K-562 leukemia
# UO-31 renal = system: UO-31 renal
# MCF7 breast = system: MCF7 breast
# ACHN renal = system: ACHN renal
# COLO 205 colon = system: COLO 205 colon
# HS 578T breast = system: HS 578T breast
# HL-60(TB) leukemia = system: HL-60(TB) leukemia
# HCT-15 colon = system: HCT-15 colon
# CCRF-CEM leukemia = system: CCRF-CEM leukemia
# OVCAR-4 ovarian = system: OVCAR-4 ovarian
# MDA-MB-435 = system: MDA-MB-435
# BT-549 breast = system: BT-549 breast
# A549 NSCLC = system: A549 NSCLC
# PC-3 prostate = system: PC-3 prostate
# HOP-92 NSCLC = system: HOP-92 NSCLC
# CAKI-1 renal = system: CAKI-1 renal
# SF-295 CNS = system: SF-295 CNS
# EKVX NSCLC = system: EKVX NSCLC
# OVCAR-8 ovarian = system: OVCAR-8 ovarian
# OVCAR-3 ovarian = system: OVCAR-3 ovarian
# NCI-H522 lung = system: NCI-H522 lung
structure (smiles),measurement,setting,value
COC(=O)C(CCSC)NC(=O)CNC(=O)CSc1nnc(COc2ccc(Cl)cc2)n1-c1ccccc1 (centres undefined),TGI,RXF 393 renal,35.9 µM
same,TGI,SNB-19 CNS,> 100 µM
same,TGI,MOLT-4 leukemia,> 100 µM
same,TGI,UACC-257 melanoma,32.2 µM
same,TGI,RPMI-8226 leukemia,59.7 µM
same,TGI,LOX IMVI melanoma,23.8 µM
same,TGI,MALME-3M melanoma,32.7 µM
same,TGI,SK-OV-3 ovarian,34 µM
same,TGI,IGROV1 ovarian,30.2 µM
same,TGI,NCI-H460 lung,31.7 µM
same,TGI,SF-539 CNS,35 µM
same,TGI,M14 melanoma,33.6 µM
same,TGI,NCI-H226 lung,36.9 µM
same,TGI,NCI-H23 lung,30.2 µM
same,TGI,TK-10 renal,31.4 µM
same,TGI,SK-MEL-28 melanoma,33.3 µM
same,TGI,786-0 renal,29.5 µM
same,TGI,A498 renal,95.7 µM
same,TGI,DU-145 prostate,55.8 µM
same,TGI,HCC-2998 colon,27 µM
same,TGI,SW-620 colon,45.3 µM
same,TGI,SNB-75 CNS,36.3 µM
same,TGI,HT29 colon,31.5 µM
same,TGI,MDA-N,32.7 µM
same,TGI,SN12C renal,32.4 µM
same,TGI,SK-MEL-2 melanoma,28.7 µM
same,TGI,NCI/ADR-RES ovarian,> 100 µM
same,TGI,SF-268 CNS,32.7 µM
same,TGI,OVCAR-5 ovarian,34.7 µM
same,TGI,U251 CNS,31 µM
same,TGI,UACC-62 melanoma,30.3 µM
same,TGI,SK-MEL-5 melanoma,31.4 µM
same,TGI,KM12 colon,44.6 µM
same,TGI,HCT-116 colon,30.5 µM
same,TGI,HOP-62 NSCLC,34.9 µM
same,TGI,MDA-MB-231 breast,29.4 µM
same,TGI,T-47D breast,54.7 µM
same,TGI,K-562 leukemia,> 100 µM
same,TGI,UO-31 renal,22.1 µM
same,TGI,MCF7 breast,39.6 µM
same,TGI,ACHN renal,30.7 µM
same,TGI,COLO 205 colon,33.6 µM
same,TGI,HS 578T breast,53.1 µM
same,TGI,HL-60(TB) leukemia,38.3 µM
same,TGI,HCT-15 colon,37.8 µM
same,TGI,CCRF-CEM leukemia,26.1 µM
same,TGI,OVCAR-4 ovarian,50.1 µM
same,TGI,MDA-MB-435,37.9 µM
same,TGI,BT-549 breast,30.6 µM
same,TGI,A549 NSCLC,> 100 µM
same,TGI,PC-3 prostate,30.2 µM
same,TGI,HOP-92 NSCLC,32 µM
N#Cc1c2c(c(N)oc1=O)C(c1ccccc1)CC(=O)N2 (centres undefined),TGI,RXF 393 renal,> 100 µM
same,TGI,CAKI-1 renal,> 100 µM
same,TGI,SNB-19 CNS,> 100 µM
same,TGI,MOLT-4 leukemia,> 100 µM
same,TGI,UACC-257 melanoma,> 100 µM
same,TGI,RPMI-8226 leukemia,> 100 µM
same,TGI,LOX IMVI melanoma,> 100 µM
same,TGI,SF-295 CNS,> 100 µM
same,TGI,MALME-3M melanoma,> 100 µM
same,TGI,SK-OV-3 ovarian,> 100 µM
same,TGI,IGROV1 ovarian,> 100 µM
same,TGI,NCI-H460 lung,> 100 µM
same,TGI,SF-539 CNS,> 100 µM
same,TGI,M14 melanoma,> 100 µM
same,TGI,NCI-H226 lung,> 100 µM
same,TGI,NCI-H23 lung,> 100 µM
same,TGI,TK-10 renal,> 100 µM
same,TGI,SK-MEL-28 melanoma,> 100 µM
same,TGI,786-0 renal,> 100 µM
same,TGI,DU-145 prostate,> 100 µM
same,TGI,HCC-2998 colon,> 100 µM
same,TGI,SW-620 colon,> 100 µM
same,TGI,SNB-75 CNS,> 100 µM
same,TGI,HT29 colon,> 100 µM
same,TGI,MDA-N,> 100 µM
same,TGI,SN12C renal,> 100 µM
same,TGI,SK-MEL-2 melanoma,> 100 µM
same,TGI,NCI/ADR-RES ovarian,> 100 µM
same,TGI,EKVX NSCLC,> 100 µM
same,TGI,SF-268 CNS,> 100 µM
same,TGI,OVCAR-8 ovarian,> 100 µM
same,TGI,OVCAR-5 ovarian,> 100 µM
same,TGI,U251 CNS,> 100 µM
same,TGI,UACC-62 melanoma,> 100 µM
same,TGI,SK-MEL-5 melanoma,> 100 µM
same,TGI,KM12 colon,> 100 µM
same,TGI,OVCAR-3 ovarian,> 100 µM
same,TGI,NCI-H522 lung,> 100 µM
same,TGI,HCT-116 colon,> 100 µM
same,TGI,HOP-62 NSCLC,> 100 µM
same,TGI,MDA-MB-231 breast,> 100 µM
same,TGI,T-47D breast,> 100 µM
same,TGI,K-562 leukemia,> 100 µM
same,TGI,UO-31 renal,> 100 µM
same,TGI,MCF7 breast,> 100 µM
same,TGI,ACHN renal,> 100 µM
same,TGI,COLO 205 colon,> 100 µM
same,TGI,HS 578T breast,> 100 µM
same,TGI,HL-60(TB) leukemia,> 100 µM
same,TGI,HCT-15 colon,> 100 µM
same,TGI,CCRF-CEM leukemia,> 100 µM
same,TGI,OVCAR-4 ovarian,> 100 µM
same,TGI,MDA-MB-435,> 100 µM
same,TGI,BT-549 breast,> 100 µM
same,TGI,A549 NSCLC,> 100 µM
same,TGI,PC-3 prostate,> 100 µM
same,TGI,HOP-92 NSCLC,> 100 µM

# Source: PubChem BioAssay (NCI)
